Data on twelve compounds can be found in article PMC11940309, “Endocrine-Disrupting Activities of Flavones on Steroid Receptors: Structural Requirements and Synthesis of Novel Flavone with Improved Estrogenic Activity” (Biomedicines, 2025).

Values joined by “and” are separate entries in the source; they are usually repeats but may differ in a detail not shown here. Equal values may be shown once. Read-outs that look alike come from different tables or passages of the source.

For one experiment, the target named is T1, human AR (Homo sapiens, UniProt P10275).
T1 construct: expressed in transfected cells; host or cells: HeLa13 (HeLa 13)
T1 sequence (P10275 1-920): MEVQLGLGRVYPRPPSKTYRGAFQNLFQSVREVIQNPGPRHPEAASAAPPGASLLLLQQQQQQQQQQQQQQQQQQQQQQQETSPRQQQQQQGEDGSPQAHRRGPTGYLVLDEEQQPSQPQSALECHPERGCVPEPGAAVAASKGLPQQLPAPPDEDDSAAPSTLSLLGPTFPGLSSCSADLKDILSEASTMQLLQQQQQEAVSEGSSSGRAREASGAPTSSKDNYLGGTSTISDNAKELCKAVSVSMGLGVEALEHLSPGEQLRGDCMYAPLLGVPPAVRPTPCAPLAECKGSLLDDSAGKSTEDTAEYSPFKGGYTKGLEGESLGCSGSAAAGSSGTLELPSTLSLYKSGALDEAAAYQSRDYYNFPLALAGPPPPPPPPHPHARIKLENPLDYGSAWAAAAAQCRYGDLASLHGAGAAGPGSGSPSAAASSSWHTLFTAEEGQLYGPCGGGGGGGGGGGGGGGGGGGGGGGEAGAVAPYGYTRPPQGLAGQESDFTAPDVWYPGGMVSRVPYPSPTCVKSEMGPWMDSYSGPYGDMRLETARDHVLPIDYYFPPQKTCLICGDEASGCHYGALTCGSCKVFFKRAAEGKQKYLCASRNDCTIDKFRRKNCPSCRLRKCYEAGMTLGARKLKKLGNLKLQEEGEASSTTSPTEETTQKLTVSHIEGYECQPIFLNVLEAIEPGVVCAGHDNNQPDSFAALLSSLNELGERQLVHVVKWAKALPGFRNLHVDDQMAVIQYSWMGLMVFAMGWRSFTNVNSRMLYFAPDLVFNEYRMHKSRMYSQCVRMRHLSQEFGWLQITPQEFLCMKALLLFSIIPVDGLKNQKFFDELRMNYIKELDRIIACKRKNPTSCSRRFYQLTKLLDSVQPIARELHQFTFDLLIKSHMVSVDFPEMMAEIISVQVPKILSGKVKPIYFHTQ
Put plainly: AR-mediated induction of PSA-luciferase reporter by R1881 in HeLa13 cells. The settings on record: for inhibition at 1 µM / inhibition at 4 µM: read-out: % Inhibition of AR-Mediated Gene Induction. Format: cell-based. The source says: (§1) The engineered T47D breast cancer cell lines employed for the assessment of flavonoid activity on glucocorticoid receptor (GR) and progesterone receptor (PR) signaling permitted the facile quantitation transcription of both an endogenous gene and a stably integrated reporter gene. […] The T47D K5pLuc cell line responds to progestins via induction of a stably integrated cytokeratin 5-luciferase reporter gene. […] For assessment of the effect of the test compounds on androgen receptor (AR) signaling, we used the HeLa13 cell line engineered to stably express human AR and a PSA-luciferase reporter gene containing a 4× multimerized PSA upstream enhancer ARE1 linked to the E4 TATA box and luciferase gene.
Experiments testing the effect of flavonoid on androgen receptor-mediated transcription employed HeLa 13 cells maintained in MEM medium supplemented with 10% FBS, 0.5 mg/mL G418, 0.05 mg/mL Hygromycin B, […], and streptomycin (100 μg/mL). For reporter gene experiments, cells were replated at a 1:5 dilution in MEM medium with 5% charcoal-stripped FBS and the antibiotics mentioned above. The medium was changed the next day. After 48 h, the cells were washed with PBSE, detached with phenol red-free trypsin, pelleted, resuspended and plated in 96 well plates as above. Hormone and flavonoid treatments were performed as described above with the HeLa 13 medium and charcoal-stripped FBS. When treated with hormone, the synthetic androgen, R1881, was used at 1.0 nM. Hormone treatment was for 20 h at which time cells were harvested for assay of luciferase.
(§2) For all cell lines, cell harvesting and the luminescence assay for alkaline phosphatase and/or luciferase were performed as previously described in detail. Each condition was performed in quadruplicate. […] Percent inhibition is 100 minus the percent induction.
Background: A reporter such as luciferase makes a cellular process visible.

The test system of another experiment is estrogen receptor (ER). Put plainly: ER-mediated luciferase reporter induction in T47D KBluc cells. Format: cell-based, human. The settings on record: for % ER Induction: relative to 1nM estradiol. As to the method:
Experiments testing the effect of flavonoids on estrogen receptor-mediated transcription employed T47D KBluc cells. These cells were maintained in RPMI medium with 10% FBS, penicillin (100 U/mL), and streptomycin (100 μg/mL). For reporter gene experiments, cells were detached as above and replated at 50% confluency in phenol red-free RPMI media with 10% charcoal-stripped FBS and antibiotics (day one). All subsequent steps used phenol red-free medium and trypsin. On day three, the medium was replaced with fresh medium. On day five, cells were washed with PBSE, detached, resuspended, diluted, and replated in the phenol red-free RPMI with charcoal-stripped serum (50,000 cells per well as above).
as §2

Experiment [1] concerns the target T2, progesterone receptor (PR) (Homo sapiens, UniProt P06401).
T2 sequence (P06401 679-933 limits assumed): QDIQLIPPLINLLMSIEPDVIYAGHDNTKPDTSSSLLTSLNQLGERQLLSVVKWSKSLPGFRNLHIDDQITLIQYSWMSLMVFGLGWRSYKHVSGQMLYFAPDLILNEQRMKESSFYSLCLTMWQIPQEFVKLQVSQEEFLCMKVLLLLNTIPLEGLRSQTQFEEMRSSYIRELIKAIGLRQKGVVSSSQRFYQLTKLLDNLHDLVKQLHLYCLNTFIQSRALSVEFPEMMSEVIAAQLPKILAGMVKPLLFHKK
Put plainly: PR-mediated induction of transcription by R5020 in T47D K5pLuc cells (luciferase reporter and endogenous alkaline phosphatase). The settings on record: T47D, R5020 1.0 nM. The class given is cell-based.
Source text: as §1
Experiments testing the effect of flavonoids on progesterone receptor-mediated transcription employed T47D K5pluc cells. The protocol was the same as that for T47D (A1-2) cells except the medium was Dulbecco’s Modified Eagle’s Medium supplemented with 10% FBS, insulin (10 nM), puromycin 200 ng/mL, nonessential amino acids, penicillin (100 U/mL), and streptomycin (100 μg/mL). When treated with hormone, the synthetic progestin, R5020, was used at 1.0 nM. Hormone treatment was for 20 h at which time cells were harvested for assay of alkaline phosphatase and luciferase.
as §2

In experiment [2] the target is T3, glucocorticoid receptor (GR) (Rattus norvegicus, UniProt P06536).
T3 construct: host or cells: T47D (A1-2)
T3 sequence (P06536 1-795): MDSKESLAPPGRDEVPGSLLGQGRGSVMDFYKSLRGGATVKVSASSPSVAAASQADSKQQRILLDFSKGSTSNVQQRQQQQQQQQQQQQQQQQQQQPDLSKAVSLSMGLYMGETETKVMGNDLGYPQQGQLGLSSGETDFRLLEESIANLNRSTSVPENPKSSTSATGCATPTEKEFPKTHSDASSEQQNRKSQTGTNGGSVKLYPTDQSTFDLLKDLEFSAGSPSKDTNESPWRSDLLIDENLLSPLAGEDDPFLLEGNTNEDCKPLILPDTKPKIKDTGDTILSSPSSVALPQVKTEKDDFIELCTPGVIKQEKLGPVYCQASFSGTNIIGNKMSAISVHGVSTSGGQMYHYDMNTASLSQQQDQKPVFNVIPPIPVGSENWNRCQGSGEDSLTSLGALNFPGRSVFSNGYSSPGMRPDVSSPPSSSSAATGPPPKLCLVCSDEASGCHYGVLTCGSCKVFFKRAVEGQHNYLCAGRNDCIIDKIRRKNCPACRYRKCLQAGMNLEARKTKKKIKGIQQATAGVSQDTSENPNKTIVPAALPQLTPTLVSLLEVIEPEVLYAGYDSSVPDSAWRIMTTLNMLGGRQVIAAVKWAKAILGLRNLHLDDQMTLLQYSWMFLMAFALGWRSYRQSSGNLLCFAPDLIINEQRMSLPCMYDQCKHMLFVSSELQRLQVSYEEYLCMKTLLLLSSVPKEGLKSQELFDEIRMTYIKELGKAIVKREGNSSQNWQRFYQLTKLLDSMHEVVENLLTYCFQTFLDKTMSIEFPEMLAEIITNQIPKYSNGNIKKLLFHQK
Put plainly: GR-mediated induction of transcription by dexamethasone in T47D (A1-2) cells (luciferase reporter and endogenous alkaline phosphatase). The class given is cell-based, human. The settings on record: T47D, dexamethasone 1.0 nM, read-out: % Inhibition of GR Induction.
Source text: as §1
For assessment of the effect of flavones on glucocorticoid receptors, T47D (A1-2) cells were maintained in Minimal Essential Medium, 10% Fetal Bovine Serum (FBS), 0.2 mg/mL G418, penicillin (100 U/mL), and streptomycin (100 μg/mL). For experiments, medium was removed, and cultures rinsed with Phosphate-Buffered Saline (PBS) + 1.0 mM EDTA (PBSE), detached with trypsin, pelleted, and resuspended in medium to a concentration of 500,000 cells/mL. Aliquots of cell suspension, 100 microliters/well, were transferred into a 96-well, white, flat-bottomed plate and allowed to attach for 24 h. The following day, each well was treated with a 50 microliter aliquot of a test compound diluted in medium. Controls received medium containing DMSO diluted in the same way. For hormone treatment, dexamethasone was diluted in medium and added as 50 microliter aliquots so that the final volume in each well was 200 microliters. The final concentration of dexamethasone was 1.0 nM. Controls received medium without hormone. Hormone treatment was for 20 h at which time cells were harvested for assay of alkaline phosphatase and luciferase.
as §2

What is called inhibition is the change of the read-out against control, counted positive when it falls. Consider `O=c1c(O)c(-c2ccc(O)cc2)oc2ccccc12` [3,4′-dihydroxyflavone], for which, at human AR (1 µM, R1881 1.0 nM), the inhibition at 1 µM was 3%. The inhibition at 4 µM on human AR (4 µM, R1881 1.0 nM) is 27%. The “% ER Induction” value in the experiment with estrogen receptor (ER) (1 µM) came out at 13%; with estrogen receptor (ER) (4 µM), 125%.
On to `O=c1c(O)c(-c2ccc(O)c(O)c2)oc2cc(O)cc(O)c12` [3,5,7,3′,4′-pentahydroxyflavone], for which the “% ER Induction” value with estrogen receptor (ER) (1 µM) is given as 3%; in the experiment on estrogen receptor (ER) (4 µM), 12%. The results for the inhibition at 4 µM in experiment [1] (AP (alkaline phosphatase)) and in experiment [1] (LUC (luciferase)) were 52% and 47%, respectively. Further, the values for the inhibition at 8 µM in experiment [1] (AP (alkaline phosphatase)) and in experiment [1] (LUC (luciferase)) were 79% and 78%, respectively.
Consider `O=c1c(O)c(-c2ccccc2)oc2ccc(O)cc12` [3,6-dihydroxyflavone], for which, on human AR (1 µM, R1881 1.0 nM), the inhibition at 1 µM was determined as 35%. Further, at human AR (4 µM, R1881 1.0 nM), the inhibition at 4 µM amounted to 52%. Also, the “% ER Induction” value turned out to be 55% with estrogen receptor (ER) (1 µM) and 94% in the experiment on estrogen receptor (ER) (4 µM).
With `O=c1c(O)c(-c2ccc(O)cc2)oc2cc(O)ccc12` [3,7,4′-trihydroxyflavone], on human AR (1 µM, R1881 1.0 nM), the inhibition at 1 µM is -6%. Also, the inhibition at 4 µM on human AR (4 µM, R1881 1.0 nM) worked out at 39%. In addition, the “% ER Induction” value with estrogen receptor (ER) (1 µM) came out at 86%; with estrogen receptor (ER) (4 µM), 114%.
In the case of `COc1ccc(-c2oc3ccc(OC)cc3c(=O)c2O)cc1` [3-hydroxy, 6,4′-dimethoxyflavone], on human AR (1 µM, R1881 1.0 nM), the inhibition at 1 µM was -17%. On human AR (4 µM, R1881 1.0 nM), the inhibition at 4 µM was found to be 41%. Moreover, the “% ER Induction” value turned out to be 2% in the experiment on estrogen receptor (ER) (1 µM) and 3% with estrogen receptor (ER) (4 µM).
Regarding `O=C1CC(c2ccc(O)cc2)Oc2ccccc21` (stereo not shown) [4′-hydroxyflavanone], at human AR, the inhibition at 1 µM is -8% and the inhibition at 4 µM came out at 0%. Further, the “% ER Induction” value with estrogen receptor (ER) (1 µM) was 12%. Further, in the experiment with estrogen receptor (ER) (4 µM), the “% ER Induction” value is 109%.
On to `COc1ccc(-c2cc(=O)c3c(OC)cccc3o2)cc1` [5,4′-methoxyflavone], for which the “% Inhibition of AR-Mediated Gene Induction” value stood at 4% at human AR (1 µM, R1881 1.0 nM) and 53% at human AR (4 µM, R1881 1.0 nM). Further, the “% ER Induction” value amounted to 1% in the experiment with estrogen receptor (ER) (1 µM) and 31% in the experiment with estrogen receptor (ER) (4 µM).
For `O=c1cc(-c2ccc(O)cc2)oc2cc(O)cc(O)c12` [5,7,4′-trihydroxyflavone], the inhibition at 4 µM in experiment [2] (AP (alkaline phosphatase)) was -19%; in experiment [2] (LUC (luciferase)) it was 6%. Besides, the inhibition at 8 µM in experiment [2] (AP (alkaline phosphatase)) stood at 49%; in experiment [2] (LUC (luciferase)), 35%.
Take `O=c1cc(-c2ccccc2)oc2cccc(O)c12` [5-hydroxyflavone]: the “% ER Induction” value turned out to be 0% in the experiment with estrogen receptor (ER) (1 µM) and 4% in the experiment on estrogen receptor (ER) (4 µM). The inhibition at 4 µM in experiment [1] (AP (alkaline phosphatase)) is 26%; in experiment [1] (LUC (luciferase)) it was -23%; in experiment [2] (AP (alkaline phosphatase)), 38%; in experiment [2] (LUC (luciferase)), -9%. The inhibition at 8 µM in experiment [1] (AP (alkaline phosphatase)) is 61%; in experiment [1] (LUC (luciferase)), 45%; in experiment [2] (AP (alkaline phosphatase)), 12%; in experiment [2] (LUC (luciferase)) it was -30%.
Turning to `C[C@]12CC[C@@H]3c4ccc(O)cc4CC[C@H]3[C@@H]1CC[C@@H]2O` [17β-estradiol], the “potency relative to the 6,4′-dihydroxyflavones” value in the experiment with estrogen receptor (ER) (in the assays used here) was “over 1000 fold”.
With `Cc1c(-c2ccc(O)cc2)oc2ccc(O)cc2c1=O` [compound 8, 3-methyl 6,4′-dihydroxyflavone], in the experiment on estrogen receptor (ER), the “increase of EC50 relative to 6,4′-dihydroxyflavone” value was “ten-fold or more”. The “reporter gene activity compared with an optimal dose of estradiol” value with estrogen receptor (ER) (1.0 micromolar) is recorded as “super-inducer”.
The term EC50 denotes the concentration that produces a half-maximal response. Consider `O=c1c(F)c(-c2ccc(O)cc2)oc2ccc(O)cc12` [compound 14, 3-fluoro, 6,4′-dihydroxyflavone], for which the “EC50 compared to that of genistein” value in the experiment with estrogen receptor (ER) was “comparable”. In the experiment with estrogen receptor (ER) (read-out: EC50, estrogen agonist), the EC50 is ~30 nM and 30 to 100 nM.
